Results from ChEMBL document CHEMBL1127719, “Synthesis and serotonergic activity of benzofuran and dihydrogenzofuran analogues of 5-carboxamidotryptamine” (Bioorg Med Chem Lett, 1994).

Legend:
[1] = target: T1, 5-hydroxytryptamine receptor 3A (Rattus norvegicus, UniProt P35563); experiment: In Vitro Binding affinity againist 5-hydroxytryptamine 3 receptor by displacing [3H]-Q-ICS 205-930 from rat cortex homogenates
T1 sequence (P35563 whole entry): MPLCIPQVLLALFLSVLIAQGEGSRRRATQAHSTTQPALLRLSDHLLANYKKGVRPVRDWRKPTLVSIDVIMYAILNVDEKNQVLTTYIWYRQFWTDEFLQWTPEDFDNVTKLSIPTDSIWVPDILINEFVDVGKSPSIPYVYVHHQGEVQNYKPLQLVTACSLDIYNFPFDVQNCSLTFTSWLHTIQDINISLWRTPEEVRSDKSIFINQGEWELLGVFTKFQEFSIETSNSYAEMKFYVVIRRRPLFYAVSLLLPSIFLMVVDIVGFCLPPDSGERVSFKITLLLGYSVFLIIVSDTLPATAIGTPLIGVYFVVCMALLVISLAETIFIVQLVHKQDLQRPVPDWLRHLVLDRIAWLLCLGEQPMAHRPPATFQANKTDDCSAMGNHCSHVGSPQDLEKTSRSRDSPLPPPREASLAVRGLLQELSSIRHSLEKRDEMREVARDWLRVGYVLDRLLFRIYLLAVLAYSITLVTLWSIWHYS

[2] = target: 5-hydroxytryptamine receptor 2A (Rattus norvegicus, UniProt P14842); experiment: In Vitro Binding affinity againist 5-HT2A receptor by displacing [3H]-DOB from rat cortex homogenates
Oryctolagus cuniculus [3] = species on record: Oryctolagus cuniculus; experiment: In Vitro functional activity in rabbit saphenous vein
Oryctolagus cuniculus [4] = species on record: Oryctolagus cuniculus; experiment: Relative maximum in rabbit by obtaining the maximum contraction relative to the maximum response with 1 uM 5-HT; assay type: functional

5-hydroxytryptamine receptor 2A, sequence (P14842 whole entry): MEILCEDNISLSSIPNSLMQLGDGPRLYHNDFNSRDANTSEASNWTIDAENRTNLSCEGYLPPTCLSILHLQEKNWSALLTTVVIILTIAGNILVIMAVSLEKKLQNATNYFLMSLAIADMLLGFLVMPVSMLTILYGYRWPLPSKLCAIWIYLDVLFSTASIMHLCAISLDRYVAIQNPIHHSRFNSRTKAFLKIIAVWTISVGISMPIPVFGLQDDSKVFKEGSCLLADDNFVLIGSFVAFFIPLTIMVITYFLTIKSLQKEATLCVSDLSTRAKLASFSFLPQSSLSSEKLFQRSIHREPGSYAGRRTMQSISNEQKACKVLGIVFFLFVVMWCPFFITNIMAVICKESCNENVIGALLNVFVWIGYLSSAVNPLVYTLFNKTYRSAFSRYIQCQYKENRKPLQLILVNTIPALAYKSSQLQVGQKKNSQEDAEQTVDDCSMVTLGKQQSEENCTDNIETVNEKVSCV

IC50 [1] [µM] | IC50 [2] [µM] | Structure (SMILES) | EC50 (Oryctolagus cuniculus [3]) [µM] | Activity (Oryctolagus cuniculus [4])
3.98 | 3.39 | CN(C)CCc1coc2ccc(C(N)=O)cc12 |  | 
4.27 | > 10 | NCCC1COc2ccc(C(N)=O)cc21 (stereo unspecified) |  | 
7.41 | 1.7 | NCCc1coc2ccc(C(N)=O)cc12 | 0.158 | 1.2

Structure (SMILES) | IC50 [1] [µM] | IC50 [2] [µM] | EC50 (Oryctolagus cuniculus [3]) [µM] | Activity (Oryctolagus cuniculus [4])
NCCc1c[nH]c2ccc(C(N)=O)cc12 |  | 21.9 | 0.0282 | 1.06
